{"source": "patent US11472845B2", "about": "“Antitumor peptide and use thereof” (TOAGOSEI CO., LTD., priority 2019, dated 2022)", "format_in_all_cases": "cell-based", "key": {"[1]": {"tested_on": "tumor cells derived from non-human mammals", "assay": "Antitumor activity on tumor cells derived from non-human mammals (data not shown)", "conditions": "detailed data not shown"}, "[2]": {"assay": "in vitro", "conditions": "human", "experimental": "Currently commercially available human gastric cancer cell lines (FU97), human alveolar basal epithelial adenocarcinoma cell lines (A549), human breast cancer cell lines (MDA-MB-231), and human melanoma cell lines (A375) were prepared as test tumor cells. In addition, normal human mammary epithelial cell culture lines (MCF-12F) were prepared for comparison. A DMEM/F12 culture medium including 20 ng/mL of recombinant EGF, 10 μg/mL of insulin, 0.5 μg/mL of hydrocortisone, and 10% FBS (product, commercially available from Wako Pure Chemical Industries, Ltd.). The above five types of cell lines were cultured in respective designated culture solutions. The cell lines were cultured so that the number of cells per well in a 96-hole (well) plate was about 5×10^3. Here, an amount of the culture solution per well was 100 μL. The 96-well plate was then placed in a CO2 incubator. Then, pre-incubation was performed under conditions of 37° C. and 5% CO2 for about 1 day (about 23 hours). Then, regarding the culture solution for the peptide addition area, culture solutions containing Sample 1 for each concentration were prepared so that the concentration of Sample 1 was 6.25 μM, 12.5 μM or 25 μM and supplied to wells (that is, wells after the pre-incubation) in which 90 μL of cells to be evaluated were cultured in each well. On the other hand, regarding the culture solution for the comparative test area, a culture solution to which no Sample 1 was added was prepared, and supplied to wells (that is, wells after the pre-incubation) in which 90 μL of cells to be evaluated were cultured in each well. The 96-well plate was then placed in a CO2 incubator, and incubated under conditions of 37° C. and 5% CO2 for 48 hours. […] Then, the absorbance at a wavelength of 450 nm (value corrected by the absorbance at a wavelength of 620 nm: A450-A620) was measured based on the reduction of the tetrazolium salt in the culture solution. Then, the cell viability was calculated according to a colorimetric method. […]"}, "[3]": {"tested_on": "human breast cancer cell lines (MDA-MB-231)", "conditions": "for Cell viability (%) of test cells: human, 48 h", "experimental": "The antitumor activity of Sample 1 synthesized in the above Test Example 1 with respect to human-derived cultured tumor cells was evaluated. Currently commercially available human gastric cancer cell lines (FU97), human alveolar basal epithelial adenocarcinoma cell lines (A549), human breast cancer cell lines (MDA-MB-231), and human melanoma cell lines (A375) were prepared as test tumor cells. In addition, normal human mammary epithelial cell culture lines (MCF-12F) were prepared for comparison. A DMEM culture medium including 0.1 mM of non-essential amino acids, 50 unit/mL of penicillin, 50 μg/mL of streptomycin, and 10% FBS. The above five types of cell lines were cultured in respective designated culture solutions. The cell lines were cultured so that the number of cells per well in a 96-hole (well) plate was about 5×10^3. Here, an amount of the culture solution per well was 100 μL. The 96-well plate was then placed in a CO2 incubator. Then, pre-incubation was performed under conditions of 37° C. and 5% CO2 for about 1 day (about 23 hours). Then, regarding the culture solution for the peptide addition area, culture solutions containing Sample 1 for each concentration were prepared so that the concentration of Sample 1 was 6.25 μM, 12.5 μM or 25 μM and supplied to wells (that is, wells after the pre-incubation) in which 90 μL of cells to be evaluated were cultured in each well. On the other hand, regarding the culture solution for the comparative test area, a culture solution to which no Sample 1 was added was prepared, and supplied to wells (that is, wells after the pre-incubation) in which 90 μL of cells to be evaluated were cultured in each well. The 96-well plate was then placed in a CO2 incubator, and incubated under conditions of 37° C. and 5% CO2 for 48 hours. […] Then, the absorbance at a wavelength of 450 nm (value corrected by the absorbance at a wavelength of 620 nm: A450-A620) was measured based on the reduction of the tetrazolium salt in the culture solution. Then, the cell viability was calculated according to a colorimetric method. In the test areas (test areas 1 to 3) in the peptide addition area, the cell viability of each of the above five types of cell lines was calculated as a relative value when a measured value (measurement absorbance) of the comparative test area in the same cell lines was set as 100%. That is, regarding each of the above five types of cell lines, the cell viability (%) was calculated by dividing the measurement absorbance of the test areas (test areas 1 to 3) in the peptide addition area by the measurement absorbance of the comparative test area in the same cell lines and multiplying by 100."}}, "note": "Where two headings read alike, the source gives them in different places. Ends that are not written are not given here."}
{"substance": "MACLGFQRHKAQLNLATRTWPCTLLFFLLFIPVFCKKRTLRKTDRKKR-NH2 (cysteines drawn unpaired) [Sample 1]", "values": [{"measurement": "antitumor activity and tumor cell-selective antitumor activity", "setting": "[1]", "result": "high antitumor activity and tumor cell-selective antitumor activity"}, {"measurement": "viability at 48 h, 6.25 μM", "setting": "[2]", "result": 130, "unit": "%"}, {"measurement": "viability at 48 h, 12.5 μM", "setting": "[2]", "result": 114, "unit": "%"}, {"measurement": "viability at 48 h, 25 μM", "setting": "[2]", "result": 82, "unit": "%"}, {"measurement": "Specific cell viability of test tumor cells", "setting": "[3]; MDA-MB-231, 12.5 μM Sample 1, (cell viability of test tumor cells)/(cell viability of MCF-12F cells)×100", "result": 47.9}, {"measurement": "Cell viability (%) of test cells", "setting": "[3]; 6.25 μM", "result": 67.8, "unit": "%"}, {"measurement": "Cell viability (%) of test cells", "setting": "[3]; 12.5 μM", "result": 54.7, "unit": "%"}, {"measurement": "Cell viability (%) of test cells", "setting": "[3]; 25 μM", "result": 41.6, "unit": "%"}]}
